Experimental data from US6737383B1, “Herbicidal oxadiazolidines” (priority 1999, dated 2004).

How the values were obtained:
pigweed = assay: Test B pre/postemergence pigweed; type: in vivo, Amaranthus retroflexus
Procedure, shortened: (§1)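 Test chemicals in a non-phytotoxic solvent mixture with surfactant were sprayed preemergence onto planted seeds and postemergence onto plants 2 to 18 cm tall (1- to 4-leaf stage). After twelve to sixteen days in a greenhouse, injury was visually rated against untreated controls from 0 (no effect) to 10 (complete control).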

corn = assay: Test B pre/postemergence corn; type: in vivo, Zea mays
Procedure, shortened: as §1

smallflower flatsedge = assay: Test B flood test smallflower flatsedge; type: in vivo, Cyperus difformis
Procedure, shortened: (§2)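 Flood test on plants grown to the 2-leaf stage; treated plants kept in greenhouse twelve to sixteen days, then visually rated against controls on a 0 (no effect) to 10 (complete control) scale.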

cocklebur = assay: Test B pre/postemergence cocklebur; type: in vivo, Xanthium strumarium
Procedure, shortened: as §1

crabgrass = assay: Test B pre/postemergence crabgrass; type: in vivo, Digitaria sanguinalis
Procedure, shortened: as §1

sugar beet = assay: Test B pre/postemergence sugar beet; type: in vivo, Beta vulgaris
Procedure, shortened: as §1

blackgrass = assay: Test B pre/postemergence blackgrass; type: in vivo, Alopecurus myosuroides
Procedure, shortened: as §1

soybean = assay: Test B pre/postemergence soybean; type: in vivo, Glycine max
Procedure, shortened: as §1

wild oat = assay: Test B pre/postemergence wild oat; type: in vivo, Avena fatua
Procedure, shortened: as §1

morningglory = assay: Test B pre/postemergence morningglory; type: in vivo, Ipomoea hederacea
Procedure, shortened: as §1

rape = assay: Test B pre/postemergence rape; type: in vivo, Brassica napus
Procedure, shortened: as §1

purple nutsedge = assay: Test B pre/postemergence purple nutsedge; type: in vivo, Cyperus rotundus
Procedure, shortened: as §1

bamyardgrass = assay: Test B flood test barnyardgrass; type: in vivo, Echinochloa crus-galli
Procedure, shortened: as §2

velvetleaf = assay: Test B pre/postemergence velvetleaf; type: in vivo, Abutilon theophrasti
Procedure, shortened: as §1

giant foxtail = assay: Test B pre/postemergence giant foxtail; type: in vivo, Setaria faberii
Procedure, shortened: as §1

surinam grass = assay: Test B pre/postemergence surinam grass; type: in vivo, Brachiaria decumbens
Procedure, shortened: as §1

[1] = Postemergence, Rate 62 g/ha, scale of 0 to 10, 0 is no effect, 10 is complete control
[2] = Postemergence, Rate 500 g/ha, scale 0 to 10, 0 is no effect, 10 is complete control
[3] = Preemergence, Rate 62 g/ha, scale 0 to 10 (0 no effect, 10 complete control)
[4] = Preemergence, Rate 125 g/ha, scale 0 to 10, 0 is no effect, 10 is complete control
[5] = Preemergence, Rate 500 g/ha, scale of 0 to 10 where 0 is no effect and 10 is complete control
[6] = Rate 250 g/ha, Postemergence, scale of 0 to 10 where 0 is no effect and 10 is complete control
[7] = Postemergence, Rate 125 g/ha, scale 0 to 10, 0 is no effect, 10 is complete control
[8] = Rate 62 g/ha, flood test species, Pre-emergence, visual evaluation after twelve to sixteen days
[9] = Rate 125 g/ha, under heading Pre-emergence, flood test species, visual evaluation after twelve to sixteen days
[10] = Rate 250 g/ha, Pre-emergence (flood test species), scale 0 to 10, 0 is no effect, 10 is complete control
[11] = Rate 500 g/ha, Pre-emergence section of Table B, 0 to 10 scale (0 no effect, 10 complete control)

CCC=CCn1c(=O)on(C(=O)N(c2ccc(Cl)cc2)C(C)C)c1=O [Compound 552]
Redroot pigweed plant response rating (pigweed; [1]): 0
Plant response rating, Redroot pigweed (pigweed; [2]): 3
Redroot pigweed plant response rating (pigweed; [3]): 0
Redroot pigweed plant response rating (pigweed; [4]): 4
Redroot pigweed plant response rating (0 to 10 scale) (pigweed; Preemergence, Rate 250 g/ha): 4
Redroot pigweed plant response rating (pigweed; [5]): 4
Plant response rating, Redroot pigweed (pigweed; [6]): 0
Corn plant response rating (corn; [1]): 0
Corn plant response rating (corn; [7]): 0
Plant response rating, Corn (corn; [2]): 0
Corn plant response rating (corn; [3]): 0
Corn plant response rating (corn; [4]): 0
Corn plant response rating (0 to 10 scale) (corn; Preemergence, Rate 250 g/ha): 0
Corn plant response rating (corn; [5]): 0
Plant response rating, Corn (corn; [6]): 0
Plant response rating, S. Flatsedge (0 to 10 scale, 0 is no effect, 10 is complete control) (smallflower flatsedge; [8]): 0
S. Flatsedge plant response rating (0 to 10 scale, 0 is no effect, 10 is complete control) (smallflower flatsedge; [9]): 0
S. Flatsedge plant response rating (smallflower flatsedge; [10]): 0
S. Flatsedge plant response rating (smallflower flatsedge; [11]): 0
Cocklebur plant response rating (cocklebur; [1]): 0
Cocklebur plant response rating (cocklebur; [7]): 0
Plant response rating, Cocklebur (cocklebur; [2]): 4
Cocklebur plant response rating (cocklebur; [3]): 0
Cocklebur plant response rating (cocklebur; [4]): 0
Cocklebur plant response rating (0 to 10 scale) (cocklebur; Preemergence, Rate 250 g/ha): 0
Cocklebur plant response rating (cocklebur; [5]): 0
Plant response rating, Cocklebur (cocklebur; [6]): 2
Crabgrass plant response rating (crabgrass; [1]): 3
Crabgrass plant response rating (crabgrass; [7]): 9
Plant response rating, Crabgrass (crabgrass; [2]): 9
Crabgrass plant response rating (crabgrass; [3]): 9
Crabgrass plant response rating (crabgrass; [4]): 9
Crabgrass plant response rating (0 to 10 scale) (crabgrass; Preemergence, Rate 250 g/ha): 8
Crabgrass plant response rating (crabgrass; [5]): 10
Sugarbeets plant response rating (sugar beet; [1]): 0
Plant response rating, Sugarbeets (sugar beet; [2]): 7
Sugarbeets plant response rating (sugar beet; [3]): 0
Sugarbeets plant response rating (sugar beet; [4]): 0
Sugarbeets plant response rating (0 to 10 scale) (sugar beet; Preemergence, Rate 250 g/ha): 0
Sugarbeets plant response rating (sugar beet; [5]): 5
Plant response rating, Sugarbeets (sugar beet; [6]): 3
Blackgrass plant response rating (blackgrass; [1]): 0
Blackgrass plant response rating (blackgrass; [7]): 0
Plant response rating, Blackgrass (blackgrass; [2]): 7
Blackgrass plant response rating (blackgrass; [3]): 0
Blackgrass plant response rating (blackgrass; [4]): 0
Blackgrass plant response rating (0 to 10 scale) (blackgrass; Preemergence, Rate 250 g/ha): 0
Blackgrass plant response rating (blackgrass; [5]): 8
Plant response rating, Blackgrass (blackgrass; [6]): 0
Soybean plant response rating (soybean; [1]): 2
Plant response rating, Soybean (soybean; [2]): 3
Soybean plant response rating (soybean; [3]): 0
Soybean plant response rating (soybean; [4]): 0
Soybean plant response rating (0 to 10 scale) (soybean; Preemergence, Rate 250 g/ha): 0
Soybean plant response rating (soybean; [5]): 0
Plant response rating, Soybean (soybean; [6]): 3
Wild oats plant response rating (wild oat; [1]): 0
Plant response rating, Wild oats (wild oat; [2]): 3
Wild oats plant response rating (wild oat; [3]): 0
Wild oats plant response rating (wild oat; [4]): 0
Wild oats plant response rating (0 to 10 scale) (wild oat; Preemergence, Rate 250 g/ha): 0
Wild oats plant response rating (wild oat; [5]): 6
Plant response rating, Wild oats (wild oat; [6]): 0
Morningglory plant response rating (morningglory; [1]): 1
Morningglory plant response rating (morningglory; [7]): 1
Plant response rating, Morningglory (morningglory; [2]): 7
Morningglory plant response rating (morningglory; [3]): 0
Morningglory plant response rating (morningglory; [4]): 0
Morningglory plant response rating (0 to 10 scale) (morningglory; Preemergence, Rate 250 g/ha): 0
Morningglory plant response rating (morningglory; [5]): 0
Plant response rating, Morningglory (morningglory; [6]): 2
Rape plant response rating (rape; [1]): 2
Rape plant response rating (rape; [7]): 6
Plant response rating, Rape (rape; [2]): 7
Rape plant response rating (rape; [3]): 0
Rape plant response rating (rape; [4]): 0
Rape plant response rating (0 to 10 scale) (rape; Preemergence, Rate 250 g/ha): 0
Rape plant response rating (rape; [5]): 0
Plant response rating, Rape (rape; [6]): 4
Nutsedge plant response rating (purple nutsedge; [1]): 0
Nutsedge plant response rating (purple nutsedge; [7]): 0
Plant response rating, Nutsedge (purple nutsedge; [2]): 0
Nutsedge plant response rating (purple nutsedge; [3]): 0
Nutsedge plant response rating (purple nutsedge; [4]): 0
Nutsedge plant response rating (0 to 10 scale) (purple nutsedge; Preemergence, Rate 250 g/ha): 0
Nutsedge plant response rating (purple nutsedge; [5]): 0
Plant response rating, Nutsedge (purple nutsedge; [6]): 0
Plant response rating, Barnyardgrass (0 to 10 scale, 0 is no effect, 10 is complete control) (bamyardgrass; [8]): 0
Barnyardgrass plant response rating (0 to 10 scale, 0 is no effect, 10 is complete control) (bamyardgrass; [9]): 0
Barnyardgrass plant response rating (bamyardgrass; [10]): 0
Barnyardgrass plant response rating (bamyardgrass; [11]): 0
Velvetleaf plant response rating (velvetleaf; [1]): 0
Plant response rating, Velvetleaf (velvetleaf; [2]): 3
Velvetleaf plant response rating (velvetleaf; [3]): 0
Velvetleaf plant response rating (velvetleaf; [4]): 0
Velvetleaf plant response rating (0 to 10 scale) (velvetleaf; Preemergence, Rate 250 g/ha): 0
Velvetleaf plant response rating (velvetleaf; [5]): 0
Plant response rating, Velvetleaf (velvetleaf; [6]): 2
Giant foxtail plant response rating (giant foxtail; [1]): 0
Giant foxtail plant response rating (giant foxtail; [7]): 3
Plant response rating, Giant foxtail (giant foxtail; [2]): 7
Giant foxtail plant response rating (giant foxtail; [3]): 9
Giant foxtail plant response rating (giant foxtail; [4]): 10
Giant foxtail plant response rating (0 to 10 scale) (giant foxtail; Preemergence, Rate 250 g/ha): 10
Giant foxtail plant response rating (giant foxtail; [5]): 10
Plant response rating, Giant foxtail (giant foxtail; [6]): 3
B. signalgrass plant response rating (surinam grass; [1]): 0
B. signalgrass plant response rating (surinam grass; [7]): 0
Plant response rating, B. signalgrass (surinam grass; [2]): 0
B. signalgrass plant response rating (surinam grass; [3]): 4
B. signalgrass plant response rating (surinam grass; [4]): 8
B. signalgrass plant response rating (surinam grass; [5]): 9
Plant response rating, B. signalgrass (surinam grass; [6]): 0
